ChEMBL document CHEMBL1201862, “PubChem BioAssay data set” (2004)
Activity calls are given as the source filed them.

Legend:
[1] = target: T1, Tyrosine-protein phosphatase non-receptor type 7 (Homo sapiens, UniProt P35236); experiment: HePTP tyrosine phosphatase activity blockers – biochemical, absorbance, leukemia target, primary screen (AID 521); type: functional
T1 sequence (P35236 whole entry): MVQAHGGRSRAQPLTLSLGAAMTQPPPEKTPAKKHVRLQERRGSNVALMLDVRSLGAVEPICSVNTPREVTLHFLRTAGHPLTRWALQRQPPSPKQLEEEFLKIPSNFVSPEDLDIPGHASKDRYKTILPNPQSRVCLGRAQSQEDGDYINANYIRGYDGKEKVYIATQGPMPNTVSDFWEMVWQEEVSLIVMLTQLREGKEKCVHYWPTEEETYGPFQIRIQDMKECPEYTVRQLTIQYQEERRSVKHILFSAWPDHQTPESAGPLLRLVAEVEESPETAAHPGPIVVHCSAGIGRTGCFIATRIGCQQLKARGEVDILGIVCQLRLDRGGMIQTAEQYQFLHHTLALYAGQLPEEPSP

[2] = COV362 cell viability loss – plate reader, dry powder, SA12, cytotoxicity control for PAX8 inhibitor project, dose response (AID 743144); type: functional, cell-based
[3] = COV434 cell viability loss – plate reader, dry powder, SA7, cytotoxicity control for PAX8 inhibitor project, dose response (AID 743145); type: functional, cell-based
[4] = PAX5 cellular inhibition readout – cell-based, plate reader, dry powder samples, selectivity assay for PAX8 inhibitor project, dose response (AID 743047); type: functional;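 also: HEK293 cells carrying a Pax5 driven CD19 promoter luciferase reporter; potency of inhibitors that lower reporter luminescence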
[5] = OV-90 cell viability loss – plate reader, dry powder, SA8, PAX8 inhibitor project, dose response (AID 743149); type: functional, cell-based
[6] = toxicity toward immortalized ovarian surface epithelium – cell-based, plate reader, dry powder samples, cytotoxicity control for PAX8 inhibitor project, dose response (AID 743045); type: functional
[7] = OVCAR4 cell viability loss – plate reader, dry powder, SA11, cytotoxicity control for PAX8 inhibitor project, dose response (AID 743150); type: functional, cell-based; conditions: OVCAR-4
[8] = inhibitors acting on PAX2 in cells – cell-based, plate reader, dry powder samples, selectivity assay for PAX8 inhibitor project, dose response (AID 743048); type: functional;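 also: HEK293 cells carrying a WT1 promoter luciferase reporter driven by expressed Pax2; potency is for inhibition of Pax2 driven reporter signal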
[9] = PAX8-dependent cell viability loss – plate reader, dry powder, dose response (AID 743049); type: functional, cell-based
Paired box protein Pax-8 = Paired box protein Pax-8 (Homo sapiens, UniProt Q06710); experiment: PAX8 transcriptional activity inhibition in RMG-I – RMG-I cells, luciferase, cherry-pick, dose response (AID 687027); type: functional, cell-based;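 also: luciferase reporter driven by Pax8 target thyroperoxidase promoter measured by SteadyGlo luminescence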
Chain of Paired box protein Pax-8 (Q06710 whole entry): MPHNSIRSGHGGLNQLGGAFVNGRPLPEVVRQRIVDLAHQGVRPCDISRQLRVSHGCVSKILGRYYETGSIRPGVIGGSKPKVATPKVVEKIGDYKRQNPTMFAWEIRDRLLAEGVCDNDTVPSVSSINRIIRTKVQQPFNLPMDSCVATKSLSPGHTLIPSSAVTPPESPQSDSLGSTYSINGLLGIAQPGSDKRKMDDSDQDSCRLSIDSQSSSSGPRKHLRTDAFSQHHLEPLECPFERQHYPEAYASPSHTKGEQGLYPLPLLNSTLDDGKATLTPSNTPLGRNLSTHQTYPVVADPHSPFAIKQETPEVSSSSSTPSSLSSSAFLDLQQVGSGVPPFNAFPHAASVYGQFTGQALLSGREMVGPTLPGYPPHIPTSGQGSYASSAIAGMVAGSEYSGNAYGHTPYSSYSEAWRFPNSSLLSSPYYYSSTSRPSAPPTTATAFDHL

[10] = M. tuberculosis growth inhibition, HTS (AID 449762); type: functional
[11] = viability loss in A549 lung cells – cell-based, 24 h, CellTiter-Glo luminescence, cherry-picks, cytotoxicity control, dose response (AID 1053115); type: functional; conditions: A549, 24 h
Protein Tat = Protein Tat (Human immunodeficiency virus type 1 group M subtype B (isolate HXB2)(HIV-1), UniProt P04608); type: functional;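 also: tat binding to TAR RNA read out by fluorescence polarization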
Chain of Protein Tat (P04608 whole entry): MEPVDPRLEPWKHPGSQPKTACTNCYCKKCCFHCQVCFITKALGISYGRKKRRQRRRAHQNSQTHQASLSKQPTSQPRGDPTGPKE

[12] = target: T2, Endoribonuclease toxin MazF (Escherichia coli K-12, UniProt P0AE70); experiment: activation of MazEF endoribonuclease cleavage – biochemical, fluorescence, single-stranded RNA substrate, uHTS hits, dose response (AID 588481); type: functional
T2 sequence (P0AE70 whole entry): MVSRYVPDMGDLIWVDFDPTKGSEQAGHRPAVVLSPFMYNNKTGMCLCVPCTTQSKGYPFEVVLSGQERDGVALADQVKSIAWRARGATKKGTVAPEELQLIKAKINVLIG

[13] = target: T2, Endoribonuclease toxin MazF; experiment: substrate-only fluorescence increase artefacts – biochemical, single-stranded RNase substrate, counter-screen for MazEF activator project, dose response (AID 588502); type: functional
[14] = Dd2 parasite growth inhibition in erythrocytes – SYBR Green, dry powder samples, set 9, dose response (AID 1159568); type: functional, cell-based
[15] = target: Diphosphomevalonate decarboxylase (Streptococcus pneumoniae serotype 2 (strain D39 / NCTC 7466), UniProt Q9FD53); experiment: diphosphomevalonate decarboxylase inhibitor confirmation – biochemical, cuvette format, coupled NADH fluorescence (AID 1028); type: functional
Chain of Diphosphomevalonate decarboxylase (Q9FD53 whole entry): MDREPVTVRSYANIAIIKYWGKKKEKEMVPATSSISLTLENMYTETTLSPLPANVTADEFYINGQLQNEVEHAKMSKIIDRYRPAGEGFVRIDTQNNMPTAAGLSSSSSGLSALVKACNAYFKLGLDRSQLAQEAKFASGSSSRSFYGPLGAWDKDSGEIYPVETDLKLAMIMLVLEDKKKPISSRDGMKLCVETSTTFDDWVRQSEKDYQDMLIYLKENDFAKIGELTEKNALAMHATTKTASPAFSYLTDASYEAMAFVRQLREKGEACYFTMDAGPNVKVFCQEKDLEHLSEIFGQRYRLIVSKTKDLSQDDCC

[16] = viability of HCT116 lacking mutant beta-catenin – cell-based, human colon tumor, dose response (AID 1045); type: functional;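 also: HCT116 colon tumor cells with beta catenin knocked out; cells exposed to compound for 60 hours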
[17] = viability of PTEN-deleted HCT116 cells – cell-based, HCT116 PTEN knockout, dose response (AID 1047); type: functional;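 also: HCT116 colon tumor cells with PTEN knocked out; cells exposed to compound for 60 hours before readout; potency for loss of cell viability measured by luminescence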
Protein skinhead-1 = target: T3, Protein skinhead-1 (Caenorhabditis elegans, UniProt P34707); type: functional
T3 sequence (P34707 whole entry): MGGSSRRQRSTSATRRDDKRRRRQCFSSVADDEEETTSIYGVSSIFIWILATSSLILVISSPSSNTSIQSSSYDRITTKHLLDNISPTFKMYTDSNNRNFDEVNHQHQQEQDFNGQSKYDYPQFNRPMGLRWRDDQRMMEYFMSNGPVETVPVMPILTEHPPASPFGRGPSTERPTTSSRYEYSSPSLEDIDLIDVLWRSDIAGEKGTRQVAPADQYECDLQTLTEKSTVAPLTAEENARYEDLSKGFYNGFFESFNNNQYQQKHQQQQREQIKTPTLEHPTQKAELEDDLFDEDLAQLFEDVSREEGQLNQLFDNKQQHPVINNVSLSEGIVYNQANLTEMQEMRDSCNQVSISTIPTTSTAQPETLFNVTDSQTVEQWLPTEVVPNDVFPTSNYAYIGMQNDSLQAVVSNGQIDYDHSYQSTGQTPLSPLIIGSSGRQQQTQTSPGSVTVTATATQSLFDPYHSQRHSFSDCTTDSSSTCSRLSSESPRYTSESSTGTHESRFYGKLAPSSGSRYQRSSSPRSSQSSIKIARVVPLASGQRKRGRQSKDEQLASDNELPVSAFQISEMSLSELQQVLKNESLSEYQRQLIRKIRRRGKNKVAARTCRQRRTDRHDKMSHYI

[18] = reduced cellular PGC1a acetyl-lysine signal – cell-based, cherry-picked samples, dose response (AID 720514); type: functional;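 also: potency may reflect raised or lowered acetylation signal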

## CN(Cc1ccccc1)c1nc2c(c(=O)[nH]c(=O)n2C)n1Cc1ccccc1
[1]
  IC50: > 100 µM (not active)

## COc1ccc(CCN2C(=O)CSC2=S)cc1OC
[2]
  AC50: 16.6 µM (active)
[3]
  AC50: 6.49 µM (active)
[4]
  AC50: > 100 µM (inactive)
[5]
  AC50: 8.61 µM (active)
[6]
  AC50: 16.8 µM (active)
[7]
  AC50: 51.2 µM (active)
[8]
  AC50: 68.3 µM (active)
[9]
  AC50: 16 µM (active)
Paired box protein Pax-8
  AC50: 7.01 µM (active)

## C/C(CC(=O)Nc1ccc(C)c(Cl)c1)=N\NC(=O)Cc1cnc(N)s1
[10]
  IC50: > 100 µM (active)

## OC[C@@H]1Nc2ccc(-c3ccccc3)cc2[C@@H]2[C@H]1CCN2Cc1ccc(F)cc1
[11]
  AC50: > 60 µM (inactive)

## CCN(CC)c1ccc(/C=N/c2ccc(N(C)C)cc2)c(O)c1
Protein Tat
  IC50: > 100 µM (inconclusive)
[12]
  EC50: > 99 µM (inactive)
[13]
  EC50: > 99 µM (inactive)

## O=C(Nc1ccccc1F)N1CCCCN2[C@H](CO)[C@@H](c3ccc(/C=C/c4ccccc4)cc3)[C@H]2C1
[14]
  AC50: 1.72 µM (active)

## CN(C)C(=O)c1ccc(-n2sc3ccccc3c2=O)cc1
[15]
  IC50: 21.9 µM (active)

## CCOc1cc(CNC2CCCC2)cc(Cl)c1OCc1ccc(F)cc1
[16]
  EC50: 12.5 µM (active)
[17]
  EC50: 16.1 µM (active)
Protein skinhead-1
  IC50: < 3.13 µM (active)
[18]
  AC50: 9.73 µM (active)
